Read-outs that look alike come from different tables or passages of the source.
Tests used:
[1] = molecular target: T1, full-length beta-Catenin (Uniprot ID P35222) (Homo sapiens, UniProt P35222); test: Fluorescence polarization IC50 (beta-catenin / 5FAM-TCF4 10-53 competition); format: binding; settings: fluorescence polarization; read-out: beta-Catenin FP IC50
T1 construct: 10 nM full-length beta-Catenin (Uniprot ID P35222)
T1 sequence (P35222 1-781): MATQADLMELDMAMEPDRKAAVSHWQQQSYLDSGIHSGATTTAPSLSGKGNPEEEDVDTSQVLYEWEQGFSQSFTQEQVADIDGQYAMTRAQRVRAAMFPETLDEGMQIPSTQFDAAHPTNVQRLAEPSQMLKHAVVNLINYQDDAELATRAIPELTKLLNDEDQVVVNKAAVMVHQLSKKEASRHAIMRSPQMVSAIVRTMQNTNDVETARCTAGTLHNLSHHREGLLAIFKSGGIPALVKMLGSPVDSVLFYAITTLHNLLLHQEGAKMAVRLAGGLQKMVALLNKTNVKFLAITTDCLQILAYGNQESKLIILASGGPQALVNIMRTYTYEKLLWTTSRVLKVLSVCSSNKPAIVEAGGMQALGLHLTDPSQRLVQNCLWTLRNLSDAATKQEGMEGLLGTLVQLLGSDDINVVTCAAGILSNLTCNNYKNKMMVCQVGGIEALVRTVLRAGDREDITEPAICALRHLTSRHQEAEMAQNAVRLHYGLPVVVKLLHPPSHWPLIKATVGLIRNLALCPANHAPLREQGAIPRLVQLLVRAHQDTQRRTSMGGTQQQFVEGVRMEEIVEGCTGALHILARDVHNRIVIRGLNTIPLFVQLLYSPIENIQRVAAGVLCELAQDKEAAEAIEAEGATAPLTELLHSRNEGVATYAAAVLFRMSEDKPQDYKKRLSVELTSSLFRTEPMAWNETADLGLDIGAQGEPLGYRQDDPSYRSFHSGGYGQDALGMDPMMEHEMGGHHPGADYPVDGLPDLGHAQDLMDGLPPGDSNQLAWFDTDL

[2] = molecular target: T2, beta-catenin/TCF4 engagement (Homo sapiens, UniProt P35222); test: Nano-BRET target engagement assay (B-cat-Halo & TCF4-Luc in HEK293 cells); format: cell-based; settings: read-out: NanoBRET Abs IC50
T2 construct: expressed in transfected cells; host or cells: HEK293
T2 sequence (P35222 1-781): T1 sequence (P35222 1-781)

Row | SMILES | IC50 [1] | IC50 ([2]; absolute IC50) | IC50 [2]
1 | CC(=O)N1CCC[C@]12CC=CCCCC1(CCCC=CCCCOC(=O)N3CC[C@@](C(=O)N[C@@H](Cc4ccsc4)C(=O)N[C@@H](Cc4csc5ccccc45)C(=O)N[C@@H](CCC(N)=O)C(N)=O)(C3)NC(=O)[C@H](CC(C)C)NC(=O)[C@H](Cc3ccccc3)NC(=O)[C@H](C)NC(=O)[C@H](C)NC(=O)[C@H](Cc3cccc(C(=O)O)c3)NC(=O)[C@H](CC(=O)O)NC1=O)NC(=O)[C@H](CC(C)C)NC(=O)[C@H](CC(=O)O)NC2=O (stereo partly drawn) [I-1406, Ac-PL3-Asp-Leu-B5-Asp-3COOHF-Ala-Ala-Phe-Leu-PyrS2-3Thi-BztA-Gln-NH2] | 0.006 µM | 5 µM | –
2 | CC(=O)N1CCC[C@]12CC=CCCCC1(CCCC=CCCCOC(=O)N3CC[C@@](C(=O)N[C@@H](Cc4ccsc4)C(=O)N[C@@H](Cc4csc5ccccc45)C(=O)N[C@@H](CCC(N)=O)C(N)=O)(C3)NC(=O)[C@H](CCC(=O)NCc3ccccc3)NC(=O)[C@H](Cc3ccccc3)NC(=O)[C@H](C)NC(=O)[C@H](C)NC(=O)[C@H](CN(CC(=O)O)CC(F)(F)F)NC(=O)[C@H](CC(=O)O)NC1=O)NC(=O)[C@H](CC(C)(C)C)NC(=O)[C@H](CC(=O)O)NC2=O (stereo partly drawn) [I-1942, Ac-PL3-Asp-Npg-B5-Asp-TfeGA-Ala-Ala-Phe-[NHBn]GlnR-PyrS2-3Thi-BztA-Gln-NH2] | 0.011 µM | – | 7.9 µM
3 | CC[C@@H]1NC(=O)[C@H](Cc2ccccc2)NC(=O)[C@H](C)NC(=O)C(C)(C)NC(=O)[C@H](Cc2cccc(C(=O)O)c2)NC(=O)[C@H](CC(=O)O)NC(=O)C2(CCCC=CCCCOC(=O)N3CC[C@@](C(=O)N[C@@H](Cc4ccsc4)C(=O)N[C@@H](Cc4csc5ccccc45)C(=O)N[C@@H](CCC(=O)N(CCOC)CCOC)C(N)=O)(C3)NC1=O)CCCC=CC[C@]1(CCCN1C(C)=O)C(=O)N[C@@H](CC(=O)O)C(=O)N[C@@H](CC(C)(C)C)C(=O)N2 (stereo partly drawn) [I-2559, Ac-PL3-Asp-Npg-B5-Asp-3COOHF-Aib-Ala-Phe-Abu-PyrS2-3Thi-BztA-[bismethoxyethylamine]GlnR-NH2] | 0.008 µM | 3.8 µM | –
4 | CC(=O)N1CCC[C@]12CC=CCCCC1(CCCC=CCCCOC(=O)N3CC[C@@](C(=O)N[C@@H](Cc4ccsc4)C(=O)N[C@@H](Cc4csc5ccccc45)C(=O)N[C@@H](CCC(N)=O)C(N)=O)(C3)NC(=O)[C@H](Cn3cc(CN4CCOCC4)nn3)NC(=O)[C@H](Cc3ccccc3)NC(=O)[C@H](C)NC(=O)[C@H](C)NC(=O)[C@H](CN(CC(=O)O)CC(F)(F)F)NC(=O)[C@H](CC(=O)O)NC1=O)NC(=O)[C@H](CC(C)(C)C)NC(=O)[C@H](CC(=O)O)NC2=O (stereo partly drawn) [I-1865, Ac-PL3-Asp-Npg-B5-Asp-TfeGA-Ala-Ala-Phe-[MorphCH2]TriAzDap-PyrS2-3Thi-BztA-Gln-NH2] | 0.01 µM | – | > 20 µM
5 | CCNC(=O)CC[C@@H]1NC(=O)[C@H](Cc2cccc(C(=O)O)c2)NC(=O)[C@H](CC(=O)O)NC(=O)C2(CCCC=CCCCOC(=O)N3CC[C@@](C(=O)N[C@@H](Cc4ccsc4)C(=O)N[C@@H](Cc4csc5ccccc45)C(=O)N[C@@H](C)C(N)=O)(C3)NC(=O)[C@H](C(C)C)NC(=O)[C@H](Cc3ccccc3)NC(=O)[C@H](C)NC1=O)CCCC=CC[C@]1(CCCN1C(C)=O)C(=O)N[C@@H](CC(=O)O)C(=O)N[C@@H](CC(C)(C)C)C(=O)N2 (stereo partly drawn) [I-2302, Ac-PL3-Asp-Npg-B5-Asp-3COOHF-[NHEt]GlnR-Ala-Phe-Val-PyrS2-3Thi-BztA-Ala-NH2] | 0.005 µM | 2.5 µM | –
6 | CC(=O)N1CCC[C@]12CC=CCCCC1(CCCC=CCCCOC(=O)N3CC[C@@](C(=O)N[C@@H](Cc4ccccc4C(F)(F)F)C(=O)N[C@@H](Cc4csc5ccccc45)C(=O)N[C@@H](CCC(N)=O)C(N)=O)(C3)NC(=O)[C@H](Cc3ccccc3)NC(=O)[C@H](Cc3ccccc3)NC(=O)[C@H](C)NC(=O)[C@H](C)NC(=O)[C@H](Cc3ccccc3C(=O)O)NC(=O)[C@H](CC(=O)O)NC1=O)NC(=O)[C@H](CC(C)(C)C)NC(=O)[C@H](CC(=O)O)NC2=O (stereo partly drawn) [I-1655, Ac-PL3-Asp-Npg-B5-Asp-2COOHF-Ala-Ala-Phe-Phe-PyrS2-2F3MeF-BztA-Gln-NH2] | 0.048 µM | 12.7 µM | –
7 | CC(=O)N1CCC[C@]12CC=CCCCC1(CCCC=CCCCOC(=O)N3CC[C@@](C(=O)N[C@@H](Cc4ccccc4C(F)(F)F)C(=O)N[C@@H](Cc4csc5ccccc45)C(=O)N[C@H](CCC(N)=O)C(N)=O)(C3)NC(=O)[C@H](Cc3ccccc3)NC(=O)[C@H](Cc3ccccc3)NC(=O)[C@H](C)NC(=O)[C@H](C)NC(=O)[C@H](Cc3cccc(C(=O)O)c3)NC(=O)[C@H](CC(=O)O)NC1=O)NC(=O)[C@H](CC(C)(C)C)NC(=O)[C@H](CC(=O)O)NC2=O (stereo partly drawn) [I-2093, Ac-PL3-Asp-Npg-B5-Asp-3COOHF-Ala-Ala-Phe-Phe-PyrS2-2F3MeF-BztA-dGln-NH2] | 0.043 µM | – | 5 µM
8 | CC(=O)N1CCC[C@]12CC=CCCCC1(CCCC=CCCCOC(=O)N3CC[C@@](C(=O)N[C@@H](Cc4ccsc4)C(=O)N[C@@H](Cc4csc5ccccc45)C(=O)N[C@@H](CCC(N)=O)C(N)=O)(C3)NC(=O)[C@H](CC(C)C)NC(=O)[C@H](Cc3ccccc3)NC(=O)[C@H](C)NC(=O)[C@H](C)NC(=O)[C@H](CCN(CCCC(F)(F)F)CC(=O)O)NC(=O)[C@H](CC(=O)O)NC1=O)NC(=O)[C@H](CC(C)(C)C)NC(=O)[C@H](CC(=O)O)NC2=O (stereo partly drawn) [I-1837, Ac-PL3-Asp-Npg-B5-Asp-[Tfb]GAbu-Ala-Ala-Phe-Leu-PyrS2-3Thi-BztA-Gln-NH2] | 0.019 µM | 18.5 µM | –
9 | CC(=O)N1CCC[C@]12CC=CCCCC1(CCCC=CCCCOC(=O)N3CC[C@@](C(=O)N[C@@H](Cc4ccsc4)C(=O)N[C@@H](Cc4csc5ccccc45)C(=O)N[C@@H](CCC(N)=O)C(N)=O)(C3)NC(=O)[C@H](CCC(=O)N3CCC(N4CCCCC4)CC3)NC(=O)[C@H](Cc3ccccc3)NC(=O)[C@H](C)NC(=O)[C@H](C)NC(=O)[C@H](CN(CC(=O)O)CC(F)(F)F)NC(=O)[C@H](CC(=O)O)NC1=O)NC(=O)[C@H](CC(C)(C)C)NC(=O)[C@H](CC(=O)O)NC2=O (stereo partly drawn) [I-1940, Ac-PL3-Asp-Npg-B5-Asp-TfeGA-Ala-Ala-Phe-[4Pippip]GlnR-PyrS2-3Thi-BztA-Gln-NH2] | 0.006 µM | – | 15.4 µM

The remaining molecules from weak to strong by IC50 [1], led by results:

Row | IC50 [1] | IC50 ([2]; absolute IC50) | IC50 [2] | SMILES
10 | 2.44 µM | > 20 µM | – | COC(=O)C[C@@H]1NC(=O)C2(CCCC=CCCCOC(=O)N3CC[C@@](C(=O)N[C@@H](Cc4ccsc4)C(=O)N[C@@H](Cc4csc5ccccc45)C(=O)N[C@@H](CCC(N)=O)C(N)=O)(C3)NC(=O)[C@H](CC(C)C)NC(=O)[C@H](Cc3ccccc3)NC(=O)[C@H](C)NC(=O)[C@H](C)NC(=O)[C@H](CC(=O)O)NC1=O)CCCC=CC[C@]1(CCCN1C(C)=O)C(=O)N[C@@H](CC(=O)O)C(=O)N[C@@H](CC(C)(C)C)C(=O)N2 (stereo partly drawn) [I-2360, Ac-PL3-Asp-Npg-B5-[Me]AspE-Asp-Ala-Ala-Phe-Leu-PyrS2-3Thi-BztA-Gln-NH2]
11 | 0.021 µM | > 20 µM | – | CC(=O)N1CCC[C@]12CC=CCCCC1(CCCC=CCCCOC(=O)N3CC[C@@](C(=O)N[C@@H](Cc4ccsc4)C(=O)N[C@@H](Cc4csc5ccccc45)C(=O)N[C@@H](CCC(N)=O)C(N)=O)(C3)NC(=O)[C@H](CC(C)C)NC(=O)[C@H](Cc3ccccc3)NC(=O)[C@H](C)NC(=O)[C@H](C)NC(=O)[C@H](CC(=O)O)NC(=O)[C@H](CC(=O)O)NC1=O)NC(=O)[C@H](CO)NC(=O)[C@H](CC(=O)O)NC2=O (stereo partly drawn) [I-1513, Ac-PL3-Asp-Ser-B5-Asp-Asp-Ala-Ala-Phe-Leu-PyrS2-3Thi-BztA-Gln-NH2]
12 | 0.01 µM | – | 4.4 µM | CC(=O)N1CCC[C@]12CC=CCCCC1(CCCC=CCCCOC(=O)N3CC[C@@](C(=O)N[C@@H](Cc4ccsc4)C(=O)N[C@@H](Cc4csc5ccccc45)C(=O)N[C@H](CCC(N)=O)C(N)=O)(C3)NC(=O)[C@H](CC(C)C)NC(=O)[C@H](Cc3ccccc3)NC(=O)[C@H](C)NC(=O)[C@H](C)NC(=O)[C@H](Cc3cccc(C(=O)O)c3)NC(=O)[C@H](CC(=O)O)NC1=O)NC(=O)[C@H](CC(C)(C)C)NC(=O)[C@H](CC(=O)O)NC2=O (stereo partly drawn) [I-2088, Ac-PL3-Asp-Npg-B5-Asp-3COOHF-Ala-Ala-Phe-Leu-PyrS2-3Thi-BztA-dGln-NH2]
13 | 0.009 µM | – | 4.9 µM | CC(=O)N1CCC[C@]12CC=CCCCC1(CCCC=CCCCOC(=O)N3CC[C@@](C(=O)N[C@@H](Cc4ccsc4)C(=O)N[C@@H](Cc4csc5ccccc45)C(=O)N[C@@H](C)C(N)=O)(C3)NC(=O)[C@H](CC(C)C)NC(=O)[C@H](Cc3ccccc3)NC(=O)[C@H](C)NC(=O)[C@H](CO)NC(=O)[C@H](Cc3cccc(C(=O)O)c3)NC(=O)[C@H](CC(=O)O)NC1=O)NC(=O)[C@H](CC(C)(C)C)NC(=O)[C@H](CC(=O)O)NC2=O (stereo partly drawn) [I-2050, Ac-PL3-Asp-Npg-B5-Asp-3COOHF-Ser-Ala-Phe-Leu-PyrS2-3Thi-BztA-Ala-NH2]

From patent publication US20240116985A1, “STAPLED PEPTIDES AND METHODS THEREOF” (priority 2020, published 2024)
